Results: US9023998B2, “Near infrared fluorogen and fluorescent activating proteins for in vivo imaging and live-cell biosensing” (Carnegie Mellon University, priority 2013, dated 2015)

Assays:
[1] = tested on: S. cerevisiae expressing mL9.3 or mL9.5 surface-tethered; assay: Confocal imaging of yeast with surface-tethered FAPs; assay type: cell-based; settings: 100 nM fluorogen, excitation 641 nm, emission 794/160
Text: Plasmids pPNL6-mL9.3 and pPNL6-mL9.5 for yeast cell surface display were produced by PCR amplification of mL9.3 (SEQ. ID. NO. 23) and mL9.5 (SEQ. ID. NO. 24) from pPNL6-dL9.2 and pPNL6-dL9.5, respectively, using primers pCTCON2F (CGACGATTGAAGGTAGATACCCATACGACGTTCCAGACTACGCTCTGCAG) (SEQ. ID. NO. 29) and p6 mL9XRv (TCTCGATGCGGCCGCTTAAGACAAAACAGTAACTTTAGTACCACC) (SEQ. ID. NO. 30). Amplicons were digested with NheI and NotI prior to ligation into a like-digested pPNL6 vector backbone. Ligated plasmids were transformed into E. coli (NEB 10β) by heat-shock, and plasmids from single colonies were sequenced to verify identity. Upon verification, purified stocks of each plasmid were introduced into S. cerevisiae strain JAR200 via electroporation. Transformed cells were induced in the manner described in Szent-Gyorgyi, et al. 2008 for 96 hours prior to imaging. Cells were adhered to concanavalin A-coated glass-bottom dishes (MatTek Corporation) for 10 minutes at room temperature. […] Images of fluorescence (FIG. 12, NIR:794/160) were obtained by excitation with a 641 nm laser, and emission was collected through a 794/160 bandpass filter (Semrock) by an iXon3 EMCCD (DU897 BV). […]

dL9.5 (SEQ. ID. NO. 3) = assay: Binding of fluorogen by FAP dL9.5
Text: The V70A mutation was propagated to both light chains to produce dL9.3 (SEQ. ID. NO. 31), which was immediately subjected to mutagenesis and screening in the surface-display format described previously (Chao, et al., Nature Protocols (2006)) in the presence of SKC602. The brightest clone collected from this screen was designated dL9.5 (SEQ. ID. NO. 3), and sequencing described exactly two mutations—tyrosine 96 to histidine—on both light chains.

Row | Compound | NIR fluorescence of fluorogen alone in non-expressing yeast [1] | Binding by dL9.5 (dL9.5 (SEQ. ID. NO. 3))
1 | CN(C)c1ccc(/C=C/C(=C2C=CC(=[N+](C)C)C=C2)c2ccc(N(C)C)cc2)cc1 [SKC602, (E)-N-(4-(1,3-bis(4-(dimethylamino)phenyl)allylidene)cyclohexa-2,5-dien-1-ylidene)-N-methylmethanaminium] | do not cause NIR fluorescence in the absence of cognate FAP | 
2 | CN(C)c1ccc(C(/C=C/c2ccc(N(C)CCCCC(=O)NC(CCS(=O)(=O)O)C(=O)O)cc2)=C2C=CC(=[N+](C)C)C=C2)cc1 (stereo not drawn) [SKC728] | do not cause NIR fluorescence in the absence of cognate FAP | bind
